Experiments:
[1] = tested on: NuTu-19 ovarian cancer cells; test: MTS cell viability assay of cultured NuTu-19 cells; type: cell-based; details: for inhibition of the ability of cisplatin to kill NuTu-19 ovarian cancer tumor cells in culture: single chemoprotectant plus cisplatin 43 μM (FIG. 2-4)
Method: NuTu-19 cells were plated at a density of 3,000 cells per well in 96 well culture dishes, and incubated at 37° C., in the presence of 5% carbon dioxide, for 24 hours. N-acetylcysteine, Ebselen or allopurinol were incubated for one hour, or for four hours, with the NuTu-19 cells, then cisplatin was added to the cultures which were further incubated at 37° C., in the presence of 5% carbon dioxide, for 24 hours. The NuTu-19 cells were then rinsed with media and incubated in […] cisplatin for an additional 24 hours.
The NuTu-19 cells were then rinsed twice with phosphate buffered saline (PBS), then MTS assays were performed to measure the number of living cells. MTS is an abbreviation for (3-(4,5-dimethylthiazol-2-yl)-5-(3-carboxymethoxyphenyl)-2-(4-sulfophenyl)-2H-tetrazolium. The MTS assay is a colorimetric method for determining the number of viable cells based upon physiologic catabolism of MTS to a formazan product that is soluble in tissue culture medium. The absorbance of the formazan product at 490 nm can be measured directly from a 96 well plate using a plate reader. Increased absorbance at 490 nm correlates with increased production of formazan in a well. This is typically due to more viable cells present in a well.

[2] = tested on: cochlear outer hair cells; test: Count of outer auditory hair cells in excised cochleae after cisplatin; type: in vivo, rat; details: rats, cisplatin plus Ebselen compared to cisplatin without Ebselen (FIG. 10A, 10B)
Method: (§1) Auditory Evoked Brainstem Response (ABR) was used to assess hearing in rats before and after exposure to cisplatin and chemoprotectants. Ebselen or DMSO (control vehicle) were introduced intraperitoneally into rats one hour before intraperitoneal administration of cisplatin at a dosage of 16 mg/kg body weight. Seventy two hours after delivery of cisplatin, ABR data were collected, animals were sacrificed, cochleae were collected, dissected, stained with FITC-phalloidin (to detect F-Actin in hair cells), and DAPI (to detect nuclear DNA).
Additionally, cochleae were excised from rats treated with the combination of cisplatin and Ebselen as described in this Example. Cochleae were also excised from rats treated with cisplatin and saline and DMSO (control). The number of outer auditory hair cells in the excised cochlea were counted at intervals of 0.1 mm along the cochlea. Representative results from a control rat and a treated rat are shown in FIG. 10A and FIG. 10B, respectively.

inner ear hair cells = test: Cochlea explant culture, inner ear hair cell count after cisplatin; type: cell-based, mouse; details: 43 μM cisplatin plus 47 μM Ebselen, 24 hours (FIG. 7)
Method: Three cochlea per treatment, obtained from P3-4 mouse pups, were cultured in 0.4 micrometer MilliCell-CM inserts with NeuroBasal A medium plus B27 supplement. After 24 hours in culture Ebselen was added to the medium, incubated for ten minutes, and then cisplatin was added to the medium at a final concentration of 43 μM. A first control treatment included 43 μM cisplatin. A second control treatment included 47 μM Ebselen without the addition of cisplatin. All cultures were incubated for 24 hours at 37° C. in 5% carbon dioxide.
The explants were then harvested, fixed, and stained with calbindin (which detects hair cells) and DAPI (4′,6-Diamindino-2-phenylindole; for detection of nuclear DNA).

hearing in rats = test: Auditory Evoked Brainstem Response (ABR), permanent threshold shift after cisplatin; type: in vivo, rat; details: cisplatin 16 mg/kg plus Ebselen 16 mg/kg i.p., compared to cisplatin without Ebselen, 72 hours (FIG. 8)
Method: as §1

In the case of `CC(=O)N[C@@H](CS)C(=O)O` [N-acetylcysteine, N-acetyl-L-Cysteine], the “inhibition of the ability of cisplatin to kill NuTu-19 ovarian cancer tumor cells in culture” value (“inhibition of the ability of cisplatin” below) [1] was “does not inhibit”.
In the case of `N.N.[Cl][Pt][Cl]` [cisplatin, cis-diamminedichloroplatinum], the “percentage of live, cultured NuTu-19 ovarian cancer cells” value ([1]; incubation for 24 hours in the presence of cisplatin (FIG. 1)) was “killed”.
With `O=c1c2ccccc2[se]n1-c1ccccc1` [Ebselen, 2-phenyl-1,2-benzoisoselenazol-3(2H)-one] the “percentage of outer hair cells missing in cochleae” value [2] was “less”, the “inhibition of the ability of cisplatin” value [1] was “does not inhibit” and the “number of inner ear hair cells (protection from damage by cisplatin in vitro)” value (inner ear hair cells) was “protects”. For the same compound, the “permanent threshold shift (PTS) in hearing at 8, 16, 24 and 32 kHz” value (hearing in rats) was “less”.
For `Oc1ncnc2[nH]ncc12` [allopurinol, 4-hydroxypyrazolo[3,4-d]pyrimidine], the “inhibition of the ability of cisplatin” value [1] was “does not inhibit”.
